In patent publication US8785457B2 (Cellzome Limited, priority 2009, dated 2014):
Like-named read-outs stand apart in the source and are kept apart here.

Columns and labels:
mTOR = biological target: T1, mTOR (Homo sapiens, UniProt P42345); assay: mTOR kinobeads assay (competitive binding in Jurkat cell lysate, immunodetection)
T1 construct: endogenous in cells; host or cells: Jurkat, clone E6-1 (ATCC TIB-152) cell lysate
Procedure: The compounds of the present invention as described were tested in the mTOR kinobeads assay as described below. […] After the incubation time the beads with captured proteins were separated from the lysate. Bound proteins were then eluted and the presence of mTOR, PI3K delta (PI3 Kd) and DNA-dependent protein kinase (DNA-PK) was detected and quantified using a specific antibody in a dot blot procedure and the Odyssey infrared detection system.
(§1) The kinobeads assay was performed as a competitive binding assay in which test compounds were added directly into a cell lysate. Test compounds (at various concentrations) and the affinity matrix (beads with immobilized phenylmorpholin-chromen ligand) were added to cell lysate aliquots and allowed to bind to the proteins contained in the lysate sample. After the incubation time the beads with captured proteins were separated from the lysate. Bound proteins were then eluted and the presence of kinases was detected and quantified using a multiplexed immunodetection format. Dose response curves for individual kinases were generated and IC50 values calculated.
(§2) 5×DP buffer: 250 mM Tris-HCl pH 7.4, 25% Glycerol, 7.5 mM MgCl2, 750 mM NaCl, 5 mM Na3VO4, filter the 5×-lysis buffer through 0.22 μm filter and store in aliquots at −80° C. The 5×DP buffer is diluted to 1×DP buffer containing 1 mM DTT and 25 mM NaF.
(§3) Stock solutions of test compounds were prepared in DMSO. In a 96 well plate 30 μl solution of diluted test compounds at 5 mM in DMSO were prepared. Starting with this solution a 1:3 dilution series (9 steps) was prepared. For control experiments (no test compound) a buffer containing 2% DMSO was used.
Jurkat cells were homogenized in a Potter S homogenizer in lysis buffer: 50 mM Tris-HCl, 0.8% NP40, 5% glycerol, 150 mM NaCl, 1.5 mM MgCl2, 25 mM NaF, 1 mM sodium vanadate, 1 mM DTT, pH 7.5. […] The material was dounced 10 times using a mechanized POTTER S, transferred to 50 ml falcon tubes, incubated for 30 minutes on ice and spun down for 10 min at 20,000 g at 4° C. (10,000 rpm in Sorvall SLA600, precooled). […] (33.500 rpm in Ti50.2, precooled). The supernatant was transferred again to a fresh 50 ml falcon tube, the protein concentration was determined by a Bradford assay (BioRad) and samples containing 50 mg of protein per aliquot were prepared. The samples were immediately used for experiments or frozen in liquid nitrogen and stored frozen at −80° C.
Jurkat cell lysate (approximately 50 mg protein per plate) was thawed in a water bath at room temperature and then kept on ice. […] The diluted cell lysate was stored on ice.
Plates were sealed and incubated for two hours in a cold room on a Thermoxer with shaking (750 rpm). Afterwards the plate was washed twice with 230 μl washing buffer (1×DP 0.4% NP40). […] The eluate was frozen quickly at −80° C. and stored at −20° C.
The kinases in the eluates were detected and quantified by spotting on Nitrocellulose membranes and using a first antibody directed against the kinase of interest and a fluorescently labeled secondary antibody (anti-mouse or anti-rabbit IRDye™ antibodies from Rockland).
Afterwards the membrane was washed three times for 10 minutes with PBS buffer containing 0.1% Tween 20 at room temperature. […] Afterwards the membrane was washed three times for 10 minutes each with 1×PBS buffer containing 0.1% Tween 20 at room temperature. Then the membrane was rinsed once with PBS buffer to remove residual Tween 20. The membrane was kept in PBS buffer at 4° C. and then scanned with the Odyssey instrument. Fluorescence signals were recorded and analysed according to the instructions of the manufacturer.

PI3K delta (PI3 Kd) = biological target: T2, PI3K delta (PI3 Kd) (Homo sapiens, UniProt O00329); assay: kinobeads assay, PI3K delta; format: binding
T2 construct: endogenous in cells; host or cells: Jurkat, clone E6-1 (ATCC TIB-152) cell lysate
Procedure: (§4) The compounds of the present invention as described were tested in the mTOR kinobeads assay as described below. Briefly, test compounds (at various concentrations) and the affinity matrix with the immobilized phenylmorpholin-chromen ligand (8-(4-aminomethyl-phenyl)-2-morpholin-4-yl-chromen-4-one) were added to cell lysate aliquots and allowed to bind to the proteins in the lysate sample. After the incubation time the beads with captured proteins were separated from the lysate. Bound proteins were then eluted and the presence of mTOR, PI3K delta (PI3 Kd) and DNA-dependent protein kinase (DNA-PK) was detected and quantified using a specific antibody in a dot blot procedure and the Odyssey infrared detection system. Kinobeads assays for PI3K (WO-A 2008/015013) and for kinase selectivity profiling (WO 2006/134056) have been previously described.
as §1
(§5) The affinity matrix (beads with immobilized phenylmorpholin-chromen ligand) was washed two times with 15 ml of 1×DP buffer containing 0.2% NP40 (IGEPAL® CA-630, Sigma, #13021) and then resupended in 5.5 ml of 1×DP buffer containing 0.2% NP40 (10% beads slurry).
as §2
as §3, with “used. Compound CZC00018052 served as a positive control (PI-103; Calbiochem catalogue number 528100).” for “used.”
(§6) Jurkat cells (ATCC catalogue number TIB-152 Jurkat, clone E6-1) were grown in 1 liter Spinner flasks (Integra Biosciences, #182101) in suspension in RPMI 1640 medium (Invitrogen, #21875-034) supplemented with 10% Fetal Bovine Serum (Invitrogen) at a density between 0.15×10^6 and 1.2×10^6 cells/ml. Cells were harvested by centrifugation, washed once with 1×PBS buffer (Invitrogen, #14190-094) and cell pellets were frozen in liquid nitrogen and subsequently stored at −80° C.
(§7) Jurkat cells were homogenized in a Potter S homogenizer in lysis buffer: 50 mM Tris-HCl, 0.8% NP40, 5% glycerol, 150 mM NaCl, 1.5 mM MgCl2, 25 mM NaF, 1 mM sodium vanadate, 1 mM DTT, pH 7.5. One complete EDTA-free tablet (protease inhibitor cocktail, Roche Diagnostics, 1873580) per 25 ml buffer was added. The material was dounced 10 times using a mechanized POTTER S, transferred to 50 ml falcon tubes, incubated for 30 minutes on ice and spun down for 10 min at 20,000 g at 4° C. (10,000 rpm in Sorvall SLA600, precooled). The supernatant was transferred to an ultracentrifuge (UZ)-polycarbonate tube (Beckmann, 355654) and spun for 1 hour at 100.000 g at 4° C. (33.500 rpm in Ti50.2, precooled). The supernatant was transferred again to a fresh 50 ml falcon tube, the protein concentration was determined by a Bradford assay (BioRad) and samples containing 50 mg of protein per aliquot were prepared. The samples were immediately used for experiments or frozen in liquid nitrogen and stored frozen at −80° C. […]

[1] = biological target: T3, DNA-dependent protein kinase (DNA-PK) (Homo sapiens, UniProt P78527); assay: kinobeads assay, DNA-PK; format: binding
T3 construct: endogenous in cells; host or cells: Jurkat, clone E6-1 (ATCC TIB-152) cell lysate
Procedure: as §4, §1, §5, §2
as §3, with “used. Compound CZC00018052 served as a positive control (PI-103; Calbiochem catalogue number 528100).” for “used.”
as §6, §7

PI3Kalpha (PI3Ka) = biological target: T4, PI3Kalpha (PI3Ka) (Homo sapiens, UniProt P42336); assay: kinobeads assay, PI3Kalpha; format: binding
T4 construct: endogenous in cells; host or cells: cell lysate
Procedure: as §1
(§8) The effect of the compounds on the kinases PI3Kalpha (PI3Ka), PI3 Kbeta (PI3 Kb) and PI3 Kgamma (PI3 Kg) were tested in the kinobeads assay as described (WO-A 2009/098021).

PI3 Kbeta (PI3 Kb) = biological target: T5, PI3 Kbeta (PI3 Kb) (Homo sapiens, UniProt P42338); assay: kinobeads assay, PI3Kbeta; format: binding
T5 construct: endogenous in cells; host or cells: cell lysate
Procedure: as §1, §8

PI3 Kgamma (PI3 Kg) = biological target: T6, PI3 Kgamma (PI3 Kg) (Homo sapiens, UniProt P48736); assay: kinobeads assay, PI3Kgamma; format: binding
T6 construct: endogenous in cells; host or cells: cell lysate
Procedure: as §1, §8

[2] = Further Kinobeads Data, read-out: mTor
[3] = Further Kinobeads Data, read-out: PI3Kd
[4] = Further Kinobeads Data, read-out: DNAPK
[5] = Further Kinobeads Data, read-out: PI3Kb
[6] = Further Kinobeads Data, read-out: PI3Kg
[7] = kinobeads assay, Table 6, read-out: Inhibition values (IC50) mTOR
[8] = kinobeads assay, Table 6, read-out: Inhibition values (IC50) PI3Kd
[9] = kinobeads assay, Table 6, read-out: Inhibition values (IC50) DNAPK
[10] = kinobeads assay, Table 6, read-out: Inhibition values (IC50) PI3Kb
[11] = kinobeads assay, Table 6, read-out: Inhibition values (IC50) PI3Kg
[12] = kinobeads assay, Table 6, read-out: Inhibition values (IC50) PI3Ka

T6 sequence (P48736 whole entry): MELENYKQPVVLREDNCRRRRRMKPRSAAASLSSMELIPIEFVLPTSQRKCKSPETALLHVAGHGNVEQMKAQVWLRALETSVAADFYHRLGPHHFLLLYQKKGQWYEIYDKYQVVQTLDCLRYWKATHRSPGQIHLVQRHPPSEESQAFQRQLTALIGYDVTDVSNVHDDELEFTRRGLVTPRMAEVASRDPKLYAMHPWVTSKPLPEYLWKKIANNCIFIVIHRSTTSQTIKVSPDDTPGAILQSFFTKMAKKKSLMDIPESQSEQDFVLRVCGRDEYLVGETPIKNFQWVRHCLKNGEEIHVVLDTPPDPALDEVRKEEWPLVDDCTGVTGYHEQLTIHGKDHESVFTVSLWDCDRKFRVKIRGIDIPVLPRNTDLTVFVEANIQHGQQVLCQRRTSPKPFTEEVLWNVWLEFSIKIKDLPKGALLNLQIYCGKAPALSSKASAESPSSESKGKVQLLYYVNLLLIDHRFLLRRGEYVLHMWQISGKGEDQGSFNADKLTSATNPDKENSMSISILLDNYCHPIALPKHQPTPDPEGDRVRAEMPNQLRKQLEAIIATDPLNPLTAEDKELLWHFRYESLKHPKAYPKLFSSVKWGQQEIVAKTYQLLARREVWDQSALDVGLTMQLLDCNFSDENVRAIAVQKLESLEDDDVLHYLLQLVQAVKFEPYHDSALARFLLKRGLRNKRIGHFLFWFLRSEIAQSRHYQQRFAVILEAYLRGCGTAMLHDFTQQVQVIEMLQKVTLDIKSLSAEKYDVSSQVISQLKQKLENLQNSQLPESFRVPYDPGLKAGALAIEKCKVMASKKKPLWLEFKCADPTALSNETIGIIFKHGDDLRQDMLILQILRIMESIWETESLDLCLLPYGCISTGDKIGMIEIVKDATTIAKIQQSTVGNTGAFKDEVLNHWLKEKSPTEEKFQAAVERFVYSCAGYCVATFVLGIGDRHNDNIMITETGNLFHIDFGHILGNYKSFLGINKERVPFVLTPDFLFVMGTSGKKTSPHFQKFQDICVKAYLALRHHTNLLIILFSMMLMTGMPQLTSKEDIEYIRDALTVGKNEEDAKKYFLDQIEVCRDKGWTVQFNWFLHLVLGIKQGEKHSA
T4 sequence (P42336 whole entry): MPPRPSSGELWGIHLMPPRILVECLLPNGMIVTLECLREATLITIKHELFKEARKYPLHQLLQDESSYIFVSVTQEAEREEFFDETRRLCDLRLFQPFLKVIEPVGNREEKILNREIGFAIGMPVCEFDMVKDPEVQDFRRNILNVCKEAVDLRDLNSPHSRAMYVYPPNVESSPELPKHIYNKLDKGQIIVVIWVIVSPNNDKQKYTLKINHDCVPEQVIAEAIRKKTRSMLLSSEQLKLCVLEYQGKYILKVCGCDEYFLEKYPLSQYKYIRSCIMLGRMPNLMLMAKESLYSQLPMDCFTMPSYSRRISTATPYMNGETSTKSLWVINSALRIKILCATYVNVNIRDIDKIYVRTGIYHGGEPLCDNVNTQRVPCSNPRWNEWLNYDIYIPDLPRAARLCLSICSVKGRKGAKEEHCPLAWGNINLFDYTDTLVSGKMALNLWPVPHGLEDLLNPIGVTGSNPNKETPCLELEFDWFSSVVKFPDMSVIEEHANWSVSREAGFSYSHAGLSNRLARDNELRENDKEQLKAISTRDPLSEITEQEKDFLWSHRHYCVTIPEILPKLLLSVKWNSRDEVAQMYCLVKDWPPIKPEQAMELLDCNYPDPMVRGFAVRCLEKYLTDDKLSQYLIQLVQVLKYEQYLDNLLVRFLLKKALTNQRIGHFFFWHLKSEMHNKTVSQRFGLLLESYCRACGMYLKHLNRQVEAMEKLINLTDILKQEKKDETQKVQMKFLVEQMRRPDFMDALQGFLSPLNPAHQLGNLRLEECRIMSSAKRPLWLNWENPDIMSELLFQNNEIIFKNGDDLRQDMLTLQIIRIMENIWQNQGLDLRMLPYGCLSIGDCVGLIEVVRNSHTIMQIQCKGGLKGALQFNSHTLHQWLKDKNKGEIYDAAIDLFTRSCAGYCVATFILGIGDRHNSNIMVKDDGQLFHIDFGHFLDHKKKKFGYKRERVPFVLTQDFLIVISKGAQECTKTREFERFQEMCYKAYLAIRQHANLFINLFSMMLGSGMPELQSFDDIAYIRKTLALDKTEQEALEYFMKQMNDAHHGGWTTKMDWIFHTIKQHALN
T4 sequence (P27986 whole entry partner): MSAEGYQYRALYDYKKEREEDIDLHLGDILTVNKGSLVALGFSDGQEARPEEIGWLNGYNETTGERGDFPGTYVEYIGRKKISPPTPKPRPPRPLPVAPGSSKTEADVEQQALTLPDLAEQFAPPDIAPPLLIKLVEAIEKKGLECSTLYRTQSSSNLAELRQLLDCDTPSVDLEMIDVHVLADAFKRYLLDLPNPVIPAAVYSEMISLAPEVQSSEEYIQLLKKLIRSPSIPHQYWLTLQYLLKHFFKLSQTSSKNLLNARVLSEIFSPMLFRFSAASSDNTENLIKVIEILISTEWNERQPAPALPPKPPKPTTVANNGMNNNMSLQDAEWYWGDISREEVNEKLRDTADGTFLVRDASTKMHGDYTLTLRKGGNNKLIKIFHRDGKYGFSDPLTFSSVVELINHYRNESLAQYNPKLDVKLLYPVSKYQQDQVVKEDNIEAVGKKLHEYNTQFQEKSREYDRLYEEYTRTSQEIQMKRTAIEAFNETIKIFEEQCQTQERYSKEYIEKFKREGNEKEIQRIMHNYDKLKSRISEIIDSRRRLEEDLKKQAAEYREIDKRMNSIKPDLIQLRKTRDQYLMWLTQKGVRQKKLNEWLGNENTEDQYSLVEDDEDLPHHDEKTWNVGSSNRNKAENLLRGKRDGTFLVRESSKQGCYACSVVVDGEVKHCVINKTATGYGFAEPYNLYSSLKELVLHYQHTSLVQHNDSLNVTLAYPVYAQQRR
T5 sequence (P42338 whole entry): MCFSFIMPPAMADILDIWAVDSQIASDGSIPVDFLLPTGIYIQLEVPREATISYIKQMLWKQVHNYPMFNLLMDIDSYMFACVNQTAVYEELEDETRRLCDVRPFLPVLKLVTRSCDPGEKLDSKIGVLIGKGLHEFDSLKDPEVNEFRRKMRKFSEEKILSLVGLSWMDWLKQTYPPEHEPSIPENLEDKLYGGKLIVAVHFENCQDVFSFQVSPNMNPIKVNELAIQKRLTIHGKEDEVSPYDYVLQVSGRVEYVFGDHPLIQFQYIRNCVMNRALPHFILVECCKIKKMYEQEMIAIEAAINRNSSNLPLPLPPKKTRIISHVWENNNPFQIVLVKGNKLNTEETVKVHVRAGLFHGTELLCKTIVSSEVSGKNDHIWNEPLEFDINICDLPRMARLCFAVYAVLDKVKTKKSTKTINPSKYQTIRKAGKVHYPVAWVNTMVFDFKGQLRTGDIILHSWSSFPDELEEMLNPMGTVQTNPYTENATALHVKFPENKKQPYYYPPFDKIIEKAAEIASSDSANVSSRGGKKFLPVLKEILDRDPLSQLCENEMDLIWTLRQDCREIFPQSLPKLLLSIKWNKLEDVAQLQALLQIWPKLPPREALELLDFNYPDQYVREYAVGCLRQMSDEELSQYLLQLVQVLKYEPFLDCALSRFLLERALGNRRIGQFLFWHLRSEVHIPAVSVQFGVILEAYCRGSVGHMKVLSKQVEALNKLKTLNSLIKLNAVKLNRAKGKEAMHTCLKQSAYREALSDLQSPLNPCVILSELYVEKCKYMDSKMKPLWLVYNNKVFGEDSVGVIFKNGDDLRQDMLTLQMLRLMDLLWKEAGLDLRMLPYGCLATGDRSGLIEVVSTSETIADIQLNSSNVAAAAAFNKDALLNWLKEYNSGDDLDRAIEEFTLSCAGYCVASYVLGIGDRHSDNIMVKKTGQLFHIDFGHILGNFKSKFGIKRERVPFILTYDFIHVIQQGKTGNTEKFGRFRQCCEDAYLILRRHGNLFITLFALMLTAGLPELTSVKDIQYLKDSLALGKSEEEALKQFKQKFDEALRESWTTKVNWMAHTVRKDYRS
T5 sequence (P27986 whole entry partner): as the sequence (P27986 whole entry partner) above
T2 sequence (O00329 whole entry): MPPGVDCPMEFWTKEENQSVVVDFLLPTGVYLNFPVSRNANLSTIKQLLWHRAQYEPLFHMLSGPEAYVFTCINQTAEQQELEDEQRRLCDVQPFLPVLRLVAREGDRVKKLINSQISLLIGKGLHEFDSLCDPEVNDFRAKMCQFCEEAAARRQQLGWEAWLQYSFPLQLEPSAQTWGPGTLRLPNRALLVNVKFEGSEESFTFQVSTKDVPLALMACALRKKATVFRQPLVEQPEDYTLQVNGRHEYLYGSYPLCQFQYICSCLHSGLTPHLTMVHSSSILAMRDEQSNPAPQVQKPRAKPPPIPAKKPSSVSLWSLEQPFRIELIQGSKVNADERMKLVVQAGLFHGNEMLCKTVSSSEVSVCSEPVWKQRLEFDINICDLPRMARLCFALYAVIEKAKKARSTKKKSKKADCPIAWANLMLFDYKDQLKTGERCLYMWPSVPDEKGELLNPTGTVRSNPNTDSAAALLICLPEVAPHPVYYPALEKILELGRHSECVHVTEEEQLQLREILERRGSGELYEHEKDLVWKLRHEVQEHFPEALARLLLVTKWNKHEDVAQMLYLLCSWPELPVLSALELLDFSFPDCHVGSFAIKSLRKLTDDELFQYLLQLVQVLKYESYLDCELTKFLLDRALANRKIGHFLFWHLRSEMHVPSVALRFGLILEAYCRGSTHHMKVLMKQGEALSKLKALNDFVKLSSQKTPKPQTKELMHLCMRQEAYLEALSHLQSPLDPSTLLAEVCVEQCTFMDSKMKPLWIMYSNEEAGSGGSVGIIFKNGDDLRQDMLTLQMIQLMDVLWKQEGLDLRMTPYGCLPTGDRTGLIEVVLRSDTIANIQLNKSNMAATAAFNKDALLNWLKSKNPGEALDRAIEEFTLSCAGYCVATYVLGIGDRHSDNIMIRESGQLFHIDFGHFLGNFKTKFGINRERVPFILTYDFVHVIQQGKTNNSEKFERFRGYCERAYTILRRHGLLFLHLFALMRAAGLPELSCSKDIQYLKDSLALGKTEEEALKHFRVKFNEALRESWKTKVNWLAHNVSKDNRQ
T2 sequence (P27986 whole entry partner): as the sequence (P27986 whole entry partner) above

| SMILES | IC50 (mTOR; [2]) [µM] | IC50 (PI3K delta (PI3 Kd); [3]) [µM] | IC50 [1, 4] [µM] | PI3Ka (PI3Kalpha (PI3Ka); Further Kinobeads Data) | IC50 (PI3 Kbeta (PI3 Kb); [5]) [µM] | IC50 (PI3 Kgamma (PI3 Kg); [6]) [µM] | IC50 (mTOR; [7]) [µM] | IC50 (PI3K delta (PI3 Kd); [8]) [µM] | IC50 [1, 9] [µM] | Inhibition values (IC50) PI3Ka (PI3Kalpha (PI3Ka); kinobeads assay, Table 6) | IC50 (PI3 Kbeta (PI3 Kb); [10]) [µM] | IC50 (PI3 Kgamma (PI3 Kg); [11]) [µM] | IC50 (PI3Kalpha (PI3Ka); [12]) [µM] | IC50 (PI3Kalpha (PI3Ka); Further Kinobeads Data, read-out: PI3Ka) [µM] |
| --- | --- | --- | --- | --- | --- | --- | --- | --- | --- | --- | --- | --- | --- | --- |
| CCNC(=O)Nc1cc(F)c(-c2nc3c(c(N4CCOC[C@@H]4C)n2)CN(C(=O)OCC)C3)c(F)c1 [Example 142, (S)-ethyl 2-(4-(3-ethylureido)-2,6-difluorophenyl)-4-(3-methylmorpholino)-5H-pyrrolo[3,4-d]pyrimidine-6(7H)-carboxylate] | > 10 | > 10 | > 10 | D (D >10 μM) | > 10 | > 10 | – | – | – | – | – | – | – | – |
| COC(=O)N1Cc2nc(-c3ccc(NC(=O)NCCO)cc3F)nc(N3CCOCC3)c2C1 [Example 175, Methyl 2-(2-fluoro-4-(3-(2-hydroxyethyl)ureido)phenyl)-4-morpholino-5H-pyrrolo[3,4-d]pyrimidine-6(7H)-carboxylate] | 0.1 to 1 | > 10 | > 10 | D (D >10 μM) | > 10 | > 10 | – | – | – | – | – | – | – | – |
| CCOC(=O)N1Cc2nc(-c3ccc(NC(=O)Nc4cccc(O)c4)cc3)nc(N3CCOC[C@@H]3C)c2C1 [Example 111, (S)-ethyl 2-(4-(3-(3-hydroxyphenyl)ureido)phenyl)-4-(3-methylmorpholino)-5H-pyrrolo[3,4-d]pyrimidine-6(7H)-carboxylate] | – | – | – | – | – | – | 0.1 to 1 | > 10 | > 10 | D (D >10 μM) | > 10 | > 10 | – | – |
| CCNC(=O)Nc1cnc(-c2nc3c(c(N4CCOC[C@@H]4C)n2)CN(C(=O)OCC)C3)cn1 [Example 116, (S)-ethyl-2-(5-(3-ethylureido)pyrazin-2-yl)-4-(3-methylmorpholino)-5H-pyrrolo[3,4-d]pyrimidine-6(7H)-carboxylate] | – | – | – | – | – | – | 0.1 to 1 | > 10 | > 10 | – | > 10 | > 10 | 1 to 10 | – |
| CC(=O)NCCCC(=O)N1Cc2nc(-c3ccc(NC(=O)NC4CC4)cc3)nc(N3CCOC[C@@H]3C)c2C1 [Example 133, (S)—N-(4-(2-(4-(3-cyclopropylureido)phenyl)-4-(3-methylmorpholino)-5H-pyrrolo[3,4-d]pyrimidin-6(7H)-yl)-4-oxobutyl)acetamide] | – | – | – | – | – | – | < 0.1 | 1 to 10 | > 10 | – | 1 to 10 | > 10 | 1 to 10 | – |
| CC(=O)N1Cc2nc(-c3ccc(NC(=O)NC4CC4)cc3F)nc(N3CCOCC3)c2C1 [Example 166, 1-(4-(6-Acetyl-4-morpholino-6,7-dihydro-5H-pyrrolo[3,4-d]pyrimidin-2-yl)-3-fluorophenyl)-3-cyclopropylurea] | < 0.1 | > 10 | > 10 | D (D >10 μM) | > 10 | > 10 | – | – | – | – | – | – | – | – |
| CCOC(=O)N1Cc2nc(-c3ccc(NC(=O)Nc4cccnc4)cc3)nc(N3CCOC[C@@H]3C)c2C1 [Example 118, (S)-ethyl 4-(3-methylmorpholino)-2-(4-(3-(pyridin-3-yl)ureido)phenyl)-5H-pyrrolo[3,4-d]pyrimidine-6(7H)-carboxylate] | – | – | – | – | – | – | 0.1 to 1 | > 10 | > 10 | D (D >10 μM) | > 10 | > 10 | – | – |
| C[C@@H]1COCCN1c1nc(-c2ccc(NC(=O)NC3CC3)cc2F)nc2c1CN(C(=O)OC(C)(C)C)C2 [Example 182, (R)-tert-butyl 2-(4-(3-cyclopropylureido)-2-fluorophenyl)-4-(3-methylmorpholino)-5H-pyrrolo[3,4-d]pyrimidine-6(7H)-carboxylate] | < 0.1 | 1 to 10 | 1 to 10 | – | > 10 | > 10 | – | – | – | – | – | – | – | 1 to 10 |
| Cl.O=C(Nc1ccc(-c2nc3c(c(N4CCOCC4)n2)CNC3)c(F)c1)NC1CC1 [Example 148, 1-(Cyclopropyl)-3-(3-fluoro-4-(4-morpholino-6,7-dihydro-5H-pyrrolo[3,4-d]pyrimidin-2-yl)phenyl)urea hydrochloride] | < 0.1 | > 10 | > 10 | D (D >10 μM) | > 10 | > 10 | – | – | – | – | – | – | – | – |
| C[C@H]1COCCN1c1nc(-c2ccc(NC(=O)NC3CC3)cc2)nc2c1CN(CC1CCNCC1)C2 [Example 130, (S)-1-cyclopropyl-3-(4-(4-(3-methylmorpholino)-6-(piperidin-4-ylmethyl)-6,7-dihydro-5H-pyrrolo[3,4-d]pyrimidin-2-yl)phenyl)urea] | – | – | – | – | – | – | < 0.1 | 1 to 10 | > 10 | – | 1 to 10 | > 10 | 1 to 10 | – |
